The results in this text go back to patent publication US10059674B2, “Design, synthesis, and biological evaluation of 1-methyl-1, 4-dihyrdoindeno[1,2-C]pyrazole analogues as potential anticaner agents targeting tubulin colchicine binding site” (ACT PHARMA CO., LTD., priority 2016, dated 2018).

Data set [1] deals with MDCK cells.
Data set [2] can be described thus: MDCK cell permeability test. The note with it: dog, MDCK, 90 min; for Papp A→B at 90 min: Apparent permeability coefficient A→B; for Papp B→A at 90 min: Apparent permeability coefficient B→A.
A short description of data set [3]: in vitro. The note with it: rat, microsomes, pH 7.47.
Data set [4] in a line: in vitro. The note with it: dog, microsomes, pH 7.47.
A short description of data set [5]: in vitro. The note with it: human, microsomes, pH 7.47.
Data set [6] relates to P-gp. The data set can be described thus: MDCK cell permeability test. The note with it: dog, MDCK.
The subject of data set [7] is MDCK cells. Briefly: MDCK cell permeability test.
The nature of data set [8]: in vitro. The note with it: monkey, microsomes, pH 7.47.
Data set [9] concerns tubulin. The data set can be described thus: Tubulin polymerization experiment (Cytoskeleton Tubulin Polymerization Assay Kit). The data set is classed as biochemical. The protocol:
The tubulin polymerization experiment is carried out according to the specifications of Tubulin Polymerization Assay Kit of Cytoskeleton Corporation.

In data set [10] the test system is human hepatocellular carcinoma (HepG2) cells. The data set can be described thus: Anti-proliferation test (MTT colorimetry). The data set is classed as cell-based. The note with it: HepG2, 72 h. The protocol:
(§1) The compound of formula 1 (prepared in embodiment 1), and the compound of formula 2 (prepared in embodiment 2) are given at different concentrations to human hepatocellular carcinoma (HepG2) cells, human prostate carcinoma (PC3) cells, human cervical carcinoma (HeLa) cells, human breast adenocarcinoma (MCF-7) cells, and human leukemia (K562) cells; all the groups are incubated 72 h in an incubator containing 5% of CO2 at 37° C., and then inhabitation ratios of the compounds to the tumor cells are measured by using methyl thiazolyl tetrazolium (MTT) colorimetry, and results are shown in table 1.

The test system of data set [11] is human breast adenocarcinoma (MCF-7) cells. The data set can be described thus: Anti-proliferation test (MTT colorimetry). Format: cell-based. The note with it: MCF7, MCF-7, 72 h. The procedure:
as §1

The test system of data set [12] is human leukemia (K562) cells. Briefly: Anti-proliferation test (MTT colorimetry). The data set is classed as cell-based. The note with it: K562, 72 h. The protocol: as §1
In data set [13] the test system is human cervical carcinoma (HeLa) cells. The data set can be described thus: Anti-proliferation test (MTT colorimetry). Format: cell-based. The note with it: 72 h. The procedure:
as §1

For data set [14], the system named is human prostate carcinoma (PC3) cells. The data set can be described thus: Anti-proliferation test (MTT colorimetry). The note with it: PC-3, PC3, 72 h. The data set is classed as cell-based. The protocol:
as §1

Data set [15] in a line: Liver microsomal metabolism stability test. The note with it: mouse. For orientation: Liver microsomes are a subcellular fraction often used to study metabolism.
Data set [16] is described as follows: in vitro. The note with it: mouse, liver microsomes, pH 7.47.
The nature of data set [17]: Liver microsomal metabolism stability test. The note with it: rat, microsomes, pH 7.47.
Where [18] appears, read: Recovery rate A→B, 2nd line of the compound (condition not given).
Where [19] appears, read: Recovery rate A→B, 1st line of the compound (condition not given; method: without / with 10 μM cyclosporine A).
Setting [20] is: Recovery rate B→A, 1st line of the compound (condition not given).
Setting [21] is: Recovery rate B→A, 2nd line of the compound (condition not given).
The mark [22] stands for this setting: 1st line of the compound (condition not given).
Setting [23] is: 2nd line of the compound (condition not given).

Like-named read-outs stand apart in the source and are kept apart here.

Consider `CC(C)CN(C[C@@H](O)[C@H](Cc1ccccc1)NC(=O)O[C@H]1CCOC1)S(=O)(=O)c1ccc(N)cc1` [Amprenavir, amprenavir, reference compound], for which, in [1], the PGP substrate judgment entry is given as “Yes”. Also, the recovery at 90 min in data set [2] (setting [18]) was determined as 95.4%; in data set [2] (setting [19]), 106%; in data set [2] (setting [20]), 102%; in data set [2] (setting [21]) it was 100%.

Broadly, the half-life is the time needed for the level to fall by half in the phase considered. Lower therefore signals fast loss. What is called microsomal CLint is the capacity of the preparation to metabolise the compound, expressed as a volume cleared per time. Read a low microsomal CLint as slow turnover. Broadly, the Papp A→B is how fast a substance crosses the layer from the apical side. Usually Papp B→A stands for how fast a substance crosses the layer from the basolateral side. Broadly, the efflux ratio is the permeability from basolateral to apical divided by that in the opposite direction, in the common usage. Broadly, the IC50 is the point on the concentration scale where inhibition reaches its midpoint. In the case of `CCOc1cccc(Nc2nn(C)c3c2Cc2cc(OCC)c(OCC(=O)NO)cc2-3)c1` [LL-02], the half-life at 1 µM is 24 min in data set [3]; 7.5 min in data set [4]; 12.9 min in [5]; 1.3 min in data set [8]; 17.8 min in data set [16]. The microsomal CLint at 1 µM in [3] was 57.7 µL/min/mg; in data set [4], 185 µL/min/mg; in [5] it was 108 µL/min/mg; in data set [8], 1070 µL/min/mg; in [16] it was 78 µL/min/mg. Further, the apparent permeability from apical to basolateral (Papp A→B) at 90 min in data set [2] (setting [22]) is 7.4 ×10⁻⁶ cm/s; in data set [2] (setting [23]) it was 12.4 ×10⁻⁶ cm/s. Further, the apparent permeability from basolateral to apical (Papp B→A) at 90 min in data set [2] (setting [22]) amounted to 32.6 ×10⁻⁶ cm/s; in data set [2] (setting [23]) it was 6.9 ×10⁻⁶ cm/s. In addition, the recovery at 90 min in data set [2] (setting [18]) came out at 59.2%; in data set [2] (setting [19]), 89.4%; in data set [2] (setting [20]), 91.3%; in [2] (setting [21]), 79.4%. In addition, the efflux ratio at 90 min in [6] came out at 4.4. Besides, the PGP substrate judgment entry in [7] (MDCK cells) is “is the PGP substrate and Yes”. Besides, the “Permeability Judgment” value in data set [7] (MDCK cells) is “moderate permeability”. In data set [7] (Papp(B→A)/Papp(A→B), 2nd line of the compound (condition not given)), the Efllux ratio was 0.6. Besides, the “inhibition of tubulin polymerization (in words)” value in data set [9] (FIGS. 1 and 2) was “able to inhibit tubulin polymerization”. For the same molecule, the IC50 in [9] (read-out: tubulin polymerization inhibiting IC50) was 5330 nM; in data set [10] it was 16.4 nM; in [11], 3.36 nM; in data set [12] it was 8.33 nM; in data set [13], 13.2 nM; in [14] it was 23.5 nM. In data set [15], the “metabolism in the liver microsomes (in words)” value is given as “faster”.

As to `COc1ccc2[nH]c([S+]([O-])Cc3ncc(C)c(OC)c3C)nc2c1` (stereo not shown) [omeprazole, reference compound], the half-life at 1 µM in data set [17] was determined as 15.7 min. Moreover, the microsomal CLint at 1 µM in [3] was 88.3 µL/min/mg.
